Source: patent publication US20240158446A1, “CYCLIC COMPOUND HAVING SELECTIVE INHIBITORY ACTION ON KRAS OVER HRAS AND NRAS” (CHUGAI SEIYAKU KABUSHIKI KAISHA, priority 2021, published 2024)

Experiments:
[1] = molecular target: GDP-bound KRAS wild-type protein (Homo sapiens, UniProt P01116); assay: Binding to KRAS by surface plasmon resonance (SPR), Single Cycle Kinetics; settings: SPR, Single Cycle Kinetics, GDP-bound KRAS wild-type protein; read-out: KRAS KD
[2] = molecular target: GDP-bound NRAS wild-type protein (Homo sapiens, UniProt P01111); assay: Binding to NRAS by surface plasmon resonance (SPR), Single Cycle Kinetics; settings: ratio of KD for GDP-bound NRAS wild-type protein to KD for KRAS, SPR
Chain of GDP-bound NRAS wild-type protein (P01111 whole entry): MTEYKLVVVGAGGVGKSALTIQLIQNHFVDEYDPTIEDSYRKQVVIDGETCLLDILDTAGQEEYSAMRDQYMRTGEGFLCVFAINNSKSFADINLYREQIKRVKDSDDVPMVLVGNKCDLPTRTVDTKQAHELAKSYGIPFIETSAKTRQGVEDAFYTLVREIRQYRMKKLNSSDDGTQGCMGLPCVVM

[3] = molecular target: GDP-bound HRAS wild-type protein (Homo sapiens, UniProt P01112); assay: Binding to HRAS by surface plasmon resonance (SPR), Single Cycle Kinetics; settings: ratio of KD for GDP-bound HRAS wild-type protein to KD for KRAS, SPR
Chain of GDP-bound HRAS wild-type protein (P01112 whole entry): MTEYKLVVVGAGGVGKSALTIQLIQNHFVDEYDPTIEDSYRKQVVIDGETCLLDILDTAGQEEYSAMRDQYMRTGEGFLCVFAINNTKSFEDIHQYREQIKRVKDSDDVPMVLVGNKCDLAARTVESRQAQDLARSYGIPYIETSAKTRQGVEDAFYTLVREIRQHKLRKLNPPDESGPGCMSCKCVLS

[4] = test system: human lung cancer strain NCI-H441; assay: cells; settings: NCI-H441, 96 h, read-out: NCI-H441 IC50 (nM), NCI-H441 cell proliferation, 4 days, CellTiter-Glo;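 further: cell proliferation inhibition after four days measured by CellTiter-Glo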

Chain of GDP-bound KRAS wild-type protein (P01116 whole entry): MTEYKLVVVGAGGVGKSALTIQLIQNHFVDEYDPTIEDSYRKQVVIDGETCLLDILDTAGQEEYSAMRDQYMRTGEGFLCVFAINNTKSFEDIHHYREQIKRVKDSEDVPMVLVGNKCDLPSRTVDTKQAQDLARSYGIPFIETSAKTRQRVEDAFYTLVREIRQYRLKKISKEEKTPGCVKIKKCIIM

| SMILES | Kd [1] [nM] | NRAS/KRAS (KD ratio) [2] | HRAS/KRAS (KD ratio) [3] | IC50 [4] [nM] |
| --- | --- | --- | --- | --- |
| CCCN(C)C(=O)[C@@H]1CC(=O)N(C)[C@@H](COCC)C(=O)N[C@@H]([C@@H](C)CC)C(=O)N(C)CC(=O)N(C)[C@H]2C/C=C\CCN(C2=O)[C@@H](Cc2ccc(C(F)(F)F)cc2)C(=O)N(C)CC(=O)N[C@@H](CCc2cc(F)c(C(F)(F)F)c(F)c2)C(=O)N2C[C@H](OCC)C[C@H]2C(=O)NC2(CC(C)(C)C2)C(=O)N(C)[C@@H](C2CCCC2)C(=O)N1C [PP2031] | 0.14 | B (a compound having 3 or more and less than 10 is denoted as B) | B (a compound having 3 or more and less than 10 is denoted as B) | 5.5 |
| CCOC[C@H]1C(=O)N[C@@H]([C@@H](C)CC)C(=O)N(C)CC(=O)N(C)[C@H]2C/C=C\CCN(C2=O)[C@@H](Cc2ccc(C(F)(F)F)cc2)C(=O)N(C)CC(=O)N[C@@H](CCc2cc(F)c(C(F)(F)F)c(F)c2)C(=O)N2C[C@H](OCC)C[C@H]2C(=O)NC2(CC(C)(C)C2)C(=O)N(C)[C@@H](C2CCCC2)C(=O)N(C)[C@H](C(=O)N(C)CC)CC(=O)N1C [PP2032] | 0.061 | A (a compound having 10 or more and less than 20 is denoted as A) | B (a compound having 3 or more and less than 10 is denoted as B) | 8.1 |
